# Laboratory results reported in patent publication US20230201183A1, “METHODS TO […] ENHANCE MULTIPLE […] PROTEOSTASIS […] TO TREAT NEURODEGENERATION AND STORAGE DISEASES” (Northwestern University, priority 2021, published 2023).
# Legend:
# [1] = tested on: SNCA-3X DA neurons and α-syn overexpressing cell lines; experiment: ER stress induction, UPR markers (mRNA/protein); type: cell-based, human; settings: for XBP1-S / mRNA/protein levels of ER chaperones including GRP78, GRP94, and CANX: 30 nM Tg or 50 ng/ml BFA for 24 hours
# Description: Total RNA was isolated from cells in a 24 or 12 well format using an RNeasy Mini Prep kit (QIAGEN). cDNA was synthesized by reverse transcriptase PCR (RT-PCR) using the RevertAid First Strand cDNA synthesis kit (Thermo Fisher Scientific). Quantitative PCR was performed on the Applied Biosystems 7500 Fast system using the cDNA and pre-designed TaqMan-primer probes for the target genes. The target mRNA expression was quantified relative to GAPDH or […] using the delta-delta-Ct method, and represented as a fold change.
# [2] = tested on: wild-type or isogenic control neurons; experiment: ER stress induction and insoluble GCase in control neurons; type: cell-based, human; settings: 30 nM Tg for 24 hours
# [3] = tested on: A53T iPSn; experiment: Neurofilament toxicity assay (neuron viability); type: cell-based, human
# Description: iPSC-neurons 96 well format were fixed in 4% paraformaldehyde in PBS for 20 minutes, followed by incubation in 0.3% Triton X-100 (PBS) for 20 min. The cells were then blocked with Odyssey blocking buffer (Li-Cor) for 1 h. Anti-neurofilament antibody (1:1000, mouse IgG 2H3, Developmental Studies Hybridoma Bank, University of Iowa, Iowa City, Iowa) was incubated overnight in blocking buffer at 4° C., followed by washing in PBS with 0.1% Tween for 20 min. IRdye 800-conjugated anti-mouse IgG antibodies (1:1000 dilution, Li-Cor) was incubated in blocking buffer for 1 hour and CellTag™ 700 (Li-Cor) was also added for normalization. The Cells were washed four times in PBS-0.1% Tween and scanned on an Odyssey infrared imaging system (Li-Cor). Neurofilament intensity was determined by Image Studio software (version 2.1 Li-Cor) and normalized to […].
# (§1) The transfection was performed with X-tremeGENE transfection reagent (Roche #6366236001) as described previously (Cuddy et al., 2019). Lentiviral particles were collected from the media and concentrated using Lenti-X concentrator (Clontech, #631232). […] The viral particle number and the number of plated cells was used to calculate the multiplicity of infection (MOI). For GFPT2 Overexpression the A53T neurons were infected at MOI-3 and harvested 2 weeks post-infection. […]
# [4] = tested on: lysosomal GCase; experiment: Live-cell lysosomal GCase activity assay; type: cell-based, human; settings: live A53T patient neurons; 10 mM GlcNAc
# Description: Live-cell lysosomal GCase activity assay. The procedure and analysis method for the activity assay has been previously described in detail (Cuddy and Mazzulli, 2021). Briefly, one day prior to the assay, cells were treated with 1 mg/ml cascade dextran blue (Life Technologies) in a 96-well plate for 24 hours. This was followed by treatment of cells with DMSO or 200 nM bafilomycin A1 for 1 hour at 37° C. The cells were subjected to 1 hour pulse chase with an artificial fluorescent GCase substrate, 100 ug/ml 5-(pentafluoro-benzoylamino) fluorescein di-ß-D-glucopyranoside (PFB-FDGluc; Life Technologies), at 37° C. The fluorescence signal was measured every 30 minutes for the span of 3-4 hours on a plate reader (Ex=485 nm, Em=530 nm, for the GCase substrates; Ex=400 nm, Em=430 nm for cascade dextran blue). For the analysis, the GCase fluorescence signal was normalized to either lysosomal mass by using cascade dextran blue signal or total cell volume by quantifying CellTag 700 staining signal.
# as §1, with “(MOI).” for “(MOI). For GFPT2 Overexpression the A53T neurons were infected at MOI-3 and harvested 2 weeks post-infection.”
# [5] = tested on: A53T iPSn; experiment: N-glycosylated proteins by Con A-biotin western blot; type: cell-based, human
# Description: (§2) Protein extraction was done as described in detail (Stojkovska and Mazzulli, 2021). […] Supernatant was discarded and the cell pellets were subjected to homogenization in 1% Triton X-100 buffer (1% Triton X-100, 20 mM HEPES pH 7.4, 150 mM NaCl, 10% glycerol, 1 mM EDTA, 1.5 mM MgCl2, 1 mM phenylmethanesulfonyl fluoride (PMSF), 50 mM NaF, 2 mM Na orthovanadate, and a protease inhibitor cocktail (Roche diagnostics, https://www.roche.com, #11-836-170-001)) by homogenization. […] Protein band intensities was quantified by the ImageStudio software ver 3.1.
# (§3) . The transfection was performed with X-tremeGENE transfection reagent (Roche #6366236001) as described previously (Cuddy et al., 2019). Lentiviral particles were collected from the media and concentrated using Lenti-X concentrator (Clontech, #631232). […] The viral particle number and the number of plated cells was used to calculate the multiplicity of infection (MOI). For GFPT2 Overexpression the A53T neurons were infected at MOI-3 and harvested 2 weeks post-infection. A53T neurons were infected with XBP1^s lentivirus at MOI-1 and harvested 16 days post-infection. […]
# (§4) Neurons were treated with or without 5 ug/ml tunicamycin (EMD Millipore/Calbiochem) for 24 hrs. Cells were extracted in 1% Triton X-100 buffer and analyzed by western blot for Hex B, Con-A, or GFPT2 as described in “Sequential protein extraction and western blotting analysis”. […]
# [6] = tested on: A53T iPSn; experiment: Hex B glycosylation and maturation by western blot; type: cell-based, human
# Description: as §2, §3, §4
# [7] = tested on: A53T iPSn; experiment: GCase solubility and maturation (sequential extraction, Endo H, western blot); type: cell-based, human; settings: 10 mM GlcNAc for 7 days
# Description: as §2
# Analysis of post-ER GCase: This assay was performed as described in detail (Cuddy and Mazzulli, 2021). Briefly, 40 ug of lysate were subjected to Endoglycosidase H (Endo H) digestion as per the manufacturer's protocol (New England Biolabs, https://www.neb.com) at 37° C. for 2 h. Duplicate samples without enzyme were incubated under the same conditions serving as control (undigested samples). […] Endo H resistant bands migrating 62-64 kDa were measured as post-ER forms and maturation was calculated by quantifying the post-ER/ER ratios. Quantification was performed on Image Studio software (Licor). […] Standard error of the mean values were graphed, analyzed by student's t-test, and p values <0.05 were considered significant. […]
# [8] = tested on: A53T iPSn; experiment: α-syn sequential extraction/western blot; type: cell-based, human; settings: 10 mM GlcNAc for 7 days
# Description: as §2
# The transfection was performed with X-tremeGENE transfection reagent (Roche #6366236001) as described previously (Cuddy et al., 2019). Lentiviral particles were collected from the media and concentrated using Lenti-X concentrator (Clontech, #631232). […] The viral particle number and the number of plated cells was used to calculate the multiplicity of infection (MOI). For GFPT2 Overexpression the A53T neurons were infected at MOI-3 and harvested 2 weeks post-infection. A53T neurons were infected with XBP1^s lentivirus at MOI-1 and harvested 16 days post-infection. Neurons infected with lentivirus expressing GFP was used as control.
# iPSC neurons were supplemented with or without GlcNAc (A3286-sigma) at 10 mM for 7 days in PBS.
# [9] = tested on: midbrain neurons from a GD (N370S/84GG) and a PD patient that harbors a GBA1 mutation (N370S/wt); experiment: GCase maturation and α-syn western blot in GBA1 mutant patient neurons; settings: GD (N370S/84GG) and GBA-PD (N370S/wt) neurons; two weeks
# [10] = tested on: isogenic control iPSn; experiment: Hex B glycosylation by western blot; type: cell-based, human; settings: control cells; tunicamycin
# Description: as §2
# (§5) Neurons were treated with or without 5 ug/ml tunicamycin (EMD Millipore/Calbiochem) for 24 hrs. Cells were extracted in 1% Triton X-100 buffer and analyzed by western blot for Hex B, Con-A, or GFPT2 as described in “Sequential protein extraction and western blotting analysis”. For mRNA measurement, total RNA was extracted and isolated as described in “Measurement of mRNA.” cDNA was synthesized and subjected to real-time PCR using Taqman-primer probe sets for GFPT2, XBP1U, and GRP78.
# [11] = tested on: SNCA-3x iPSn; experiment: GFPT2 western blot; type: cell-based, human; settings: tunicamycin
# Description: as §2, §5
# [12] = tested on: isogenic controls; experiment: GFPT2 western blot; type: cell-based, human; settings: isogenic controls of SNCA-3x; tunicamycin
# Description: as §2, §5
# [13] = tested on: control iPSn; experiment: N-glycosylated proteins by Con A-biotin western blot; type: cell-based, human; settings: tunicamycin 5 ug/ml, 24 hours
# Description: as §2, §5
# [14] = tested on: A53T iPSn; experiment: Quantitative RT-PCR mRNA analysis; type: cell-based, human
# Description: (§6) Measurement of RNA. Total RNA was extracted and isolated using the PureLink RNA Mini Kit (Thermofisher Scientific). cDNA was synthesized using the RevertAid First Strand cDNA Synthesis Kit (Thermofisher Scientific). Real-time PCR was performed on an Applied Biosystems 7500 Fast system using pre-designed Taqman-primer probe sets: DPAGT1 (Hs00609752_m1), GFPT2 (Hs01049570_m1), XBP1U (Hs02856596_m1), XBP1s (Hs03929085_g1), GRP78 (Hs99999174_m1), HSP90B1/GRP94 (Hs00427665_g1), GBA1 (Hs00164683_m1), HexB (Hs01077594_m1) and ACTB (Hs01060665_g1). The quantifications represent the fold change of target mRNA expression normalized to beta-actin (ACTB) levels by delta-Ct method. The values are mean and s.e.m of biological replicates (n=3-6) with two technical replicates for each.
# . The transfection was performed with X-tremeGENE transfection reagent (Roche #6366236001) as described previously (Cuddy et al., 2019). Lentiviral particles were collected from the media and concentrated using Lenti-X concentrator (Clontech, #631232). […]
# as §4
# [15] = tested on: wt iPSn; experiment: Quantitative RT-PCR mRNA analysis; type: cell-based, human; settings: tunicamycin 5 ug/ml, 24 h
# Description: as §6, §5
compound,measurement,setting,value
C[C@H]1CCC/C=C/[C@@H]2C[C@H](O)C[C@H]2[C@H](O)/C=C/C(=O)O1 [BFA],XBP1-S,[1],dramatic upregulation of XBP1-S
same,"mRNA/protein levels of ER chaperones including GRP78, GRP94, and CANX",[1],significantly increased mRNA/protein levels of ER chaperones
C/C=C(/C)C(=O)O[C@H]1C(C)=C2[C@H]([C@@H]1OC(=O)CCCCCCC)[C@@](C)(OC(C)=O)C[C@H](OC(=O)CCC)[C@@]1(O)[C@H]2OC(=O)[C@@]1(C)O [Tg],XBP1-S,[1],dramatic upregulation of XBP1-S
same,"mRNA/protein levels of ER chaperones including GRP78, GRP94, and CANX",[1],significantly increased mRNA/protein levels of ER chaperones
same,phospho-eIF2α,"[1]; isogenic controls and SNCA-3X DA neurons, 30 nM Tg",increased phospho-eIF2α to a similar degree
same,GRP78 expression (ER stress),[2],increased GRP78 expression
"CC(=O)NC1C(O)[C@H](O)C(CO)O[C@H]1O (stereo partly drawn) [GlcNAc, β-D-(acetylamino)-2-deoxy-glucopyranose]",neuron viability (neurofilament / neurite content),[3],improved neuron viability
same,increase of GCase activity levels,[4],~2 fold
same,N-glycosylated proteins (Con A),[5],completely restored the levels of N-glycosylation to control levels
same,glycosylated and mature forms of Hex B,[6]; 10 mM GlcNAc for 7 days,enhanced the glycosylated and mature forms of Hex B
same,"increase in the levels of mature, soluble GCase",[7],2 fold
same,reduction in pathological α-syn,[8],~75%
"C#Cc1cccc(-c2cc(=O)n(C)c3ccc([C@](O)(c4ccc(Cl)cc4)c4cncn4C)cc23)c1 [FTI, 6-[(R)-(4-chlorophenyl)hydroxy(1-methyl-1H-imidazol-5-yl)methyl]-4-(3-ethynylphenyl)-1-methyl-2(1H)-Quinolinone]",GCase maturation,[9],minimal effects
same,α-syn levels,[9],minimal effects
tunicamycin,N-glycosylated proteins (Con A),[5],no effect
same,Hex B glycosylation,[10],blocked Hex B glycosylation
same,Hex B response to tunicamycin,[6]; A53T iPSn compared to controls,reduced response
same,GFPT2 protein,[11],no effect
same,elevation of GFPT2 protein,[12],60%
same,reduction of N-glycans,[13],~50%
same,UPR-responsive transcripts XBP1 and GRP78,"[14]; A53T iPSn versus Corr, tunicamycin",less responsive
same,upregulation of GFPT2 mRNA,"[14]; A53T iPSn, tunicamycin 5 ug/ml, 24 h",~1.2 fold
same,upregulation of GFPT2 mRNA,[15],~2 fold
